Experimental data published in publication PMC5681751 (Angewandte Chemie (International ed. in English), 2017).
pKd: −log10 of the molar value.

Target: T1, CblC (Homo sapiens, UniProt Q9Y4U1)
T1 sequence (Q9Y4U1 1-282): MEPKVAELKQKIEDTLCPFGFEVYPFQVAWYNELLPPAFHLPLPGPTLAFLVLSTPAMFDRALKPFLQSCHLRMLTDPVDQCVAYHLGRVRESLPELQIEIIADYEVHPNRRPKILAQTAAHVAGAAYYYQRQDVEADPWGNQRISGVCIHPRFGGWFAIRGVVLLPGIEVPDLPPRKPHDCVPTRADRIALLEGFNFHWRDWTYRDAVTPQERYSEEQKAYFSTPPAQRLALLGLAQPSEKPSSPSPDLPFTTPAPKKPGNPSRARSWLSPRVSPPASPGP
Experiment: isothermal titration calorimetry
Settings: in the presence of glutathione (GSH); base-off binding

pKd: 7.52
Substance: PhEtyCbl [compound 2]
